# ChEMBL document CHEMBL1201862, “PubChem BioAssay data set” (2004)
# “And” between values parts separate entries of the source, which are not always exact repeats. Equal values may be shown once. The source made the active and inactive calls.
# Experiments:
# [1] = Trypanosoma cruzi growth suppression in host cells – NIH3T3 host cells, beta-gal luminescence, confirmation (AID 2044); assay type: functional, cell-based;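 note: intracellular parasites grown in NIH/3T3 mouse fibroblasts as host cells; luminescent beta-galactosidase reporter signal from transgenic T. cruzi replicating inside host cells; inhibitors lower the luminescence signal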
# [2] = NIH3T3 cell viability loss – ATP luminescence, mouse fibroblasts, counter-screen, dose response (AID 2010); assay type: functional, cell-based;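 note: cells exposed to compound for about 90 hours before reading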
# [3] = Luminescence Cell-Based Dose Retest to Confirm Inhibitors of Cancer Stem Cells. [Related pubchem assays (depositor defined):AID2717, AID2721]; assay type: functional; conditions: Homo sapiens
# Cytochrome P450 2C9 = Cytochrome P450 2C9 (Homo sapiens, UniProt P11712)
# Cytochrome P450 2C19 = Cytochrome P450 2C19 (Homo sapiens, UniProt P33261); experiment: Cytochrome panel assay with activity outcomes. Panel member name: p450-cyp2c19 Compounds with AC50 equal or less than 10 uM are considered active; assay type: functional
# Cytochrome P450 1A2 = molecular target: T1, Cytochrome P450 1A2 (Homo sapiens, UniProt P05177);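 note: PubChem cytochrome P450 panel assay, CYP1A2 panel member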
# T1 sequence (P05177 whole entry): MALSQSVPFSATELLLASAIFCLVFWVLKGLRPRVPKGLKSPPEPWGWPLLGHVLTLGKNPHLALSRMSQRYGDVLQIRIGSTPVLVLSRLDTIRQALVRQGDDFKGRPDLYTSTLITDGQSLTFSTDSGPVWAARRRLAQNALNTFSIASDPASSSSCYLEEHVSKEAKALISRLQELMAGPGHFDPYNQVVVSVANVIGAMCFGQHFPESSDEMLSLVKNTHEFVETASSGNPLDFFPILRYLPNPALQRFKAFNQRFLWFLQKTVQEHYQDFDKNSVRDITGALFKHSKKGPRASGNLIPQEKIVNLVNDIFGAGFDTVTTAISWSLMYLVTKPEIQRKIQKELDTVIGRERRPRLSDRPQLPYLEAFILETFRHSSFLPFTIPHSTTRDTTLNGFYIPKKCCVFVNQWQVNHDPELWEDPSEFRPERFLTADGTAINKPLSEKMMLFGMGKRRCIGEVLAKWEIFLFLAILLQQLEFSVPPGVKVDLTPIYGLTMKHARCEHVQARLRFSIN
# Cytochrome P450 3A4 = Cytochrome P450 3A4 (Homo sapiens, UniProt P08684);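 note: CYP3A4 tested as one member of a cytochrome P450 panel screen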
# [4] = tested on: Streptococcus sp. 'group A'; experiment: Streptococcus pyogenes SK(-)GAS viability under kanamycin – luminescence, BacTiterGlo, confirmation, counter-screen for streptokinase expression inhibitor project, dose response (AID 1900); assay type: functional, organism-based
# Streptococcus = experiment: GAS UMAA2166 growth inhibition – luminescence, BacTiterGlo, counter-screen for streptokinase expression inhibitor project, dose response (AID 1915); assay type: functional, organism-based;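 note: potency for reduction of bacterial viability or growth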
# Chain of Cytochrome P450 2C19 (P33261 whole entry): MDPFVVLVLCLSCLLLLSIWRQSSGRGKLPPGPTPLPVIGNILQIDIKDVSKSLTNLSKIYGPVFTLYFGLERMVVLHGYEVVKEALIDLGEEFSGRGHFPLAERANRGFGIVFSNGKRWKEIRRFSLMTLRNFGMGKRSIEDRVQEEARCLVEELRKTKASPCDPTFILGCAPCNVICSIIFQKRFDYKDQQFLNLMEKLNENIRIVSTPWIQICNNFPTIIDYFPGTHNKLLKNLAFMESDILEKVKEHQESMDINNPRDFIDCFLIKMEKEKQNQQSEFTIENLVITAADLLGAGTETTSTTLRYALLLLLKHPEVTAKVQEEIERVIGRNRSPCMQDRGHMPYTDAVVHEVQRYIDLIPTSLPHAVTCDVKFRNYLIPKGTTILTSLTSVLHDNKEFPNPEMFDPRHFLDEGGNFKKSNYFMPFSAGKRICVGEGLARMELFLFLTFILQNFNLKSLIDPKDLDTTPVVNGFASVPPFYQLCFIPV
# Chain of Cytochrome P450 3A4 (P08684 whole entry): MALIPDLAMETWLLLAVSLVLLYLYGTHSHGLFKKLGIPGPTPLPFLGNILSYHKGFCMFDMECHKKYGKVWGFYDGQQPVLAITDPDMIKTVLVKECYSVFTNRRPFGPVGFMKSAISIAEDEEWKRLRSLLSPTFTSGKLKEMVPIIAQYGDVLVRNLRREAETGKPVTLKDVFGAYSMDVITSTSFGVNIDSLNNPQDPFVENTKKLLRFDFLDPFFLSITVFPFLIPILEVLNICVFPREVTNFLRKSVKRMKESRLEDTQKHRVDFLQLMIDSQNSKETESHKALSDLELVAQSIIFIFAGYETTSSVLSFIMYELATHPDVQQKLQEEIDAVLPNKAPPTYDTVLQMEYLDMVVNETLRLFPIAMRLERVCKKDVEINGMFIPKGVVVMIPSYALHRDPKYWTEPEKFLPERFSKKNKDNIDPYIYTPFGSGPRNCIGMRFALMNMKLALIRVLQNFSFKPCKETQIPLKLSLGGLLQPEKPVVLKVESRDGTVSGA
# Chain of Cytochrome P450 2C9 (P11712 whole entry): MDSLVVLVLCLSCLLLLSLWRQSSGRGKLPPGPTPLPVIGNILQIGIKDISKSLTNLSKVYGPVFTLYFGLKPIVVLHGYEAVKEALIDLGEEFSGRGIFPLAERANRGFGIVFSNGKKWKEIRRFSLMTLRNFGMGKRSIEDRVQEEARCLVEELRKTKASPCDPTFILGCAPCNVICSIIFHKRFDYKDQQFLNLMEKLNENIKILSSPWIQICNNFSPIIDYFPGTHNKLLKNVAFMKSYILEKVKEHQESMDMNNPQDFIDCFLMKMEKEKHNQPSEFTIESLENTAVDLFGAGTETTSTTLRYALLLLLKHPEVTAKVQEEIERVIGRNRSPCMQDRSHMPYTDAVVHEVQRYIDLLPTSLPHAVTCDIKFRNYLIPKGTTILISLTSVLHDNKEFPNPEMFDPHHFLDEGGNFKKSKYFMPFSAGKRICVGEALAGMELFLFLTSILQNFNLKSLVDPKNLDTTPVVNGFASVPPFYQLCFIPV
smiles,measurement,setting,value
Cc1cccc(-n2cc(CN(C)Cc3nccn3C)c(-c3cccc(F)c3)n2)c1,EC50,[1],1.79 µM (active)
same,EC50,[2],11.8 µM (active)
same,AC50,[3],13.5 µM (active)
CC12CN3CC(C)(CN(C1)C3c1ccc([N+](=O)[O-])o1)C2=O (stereo unspecified),EC50,[1],0.784 µM (active)
same,EC50,[2],> 60 µM (not active)
Cc1cccc(OC(=O)CN2C(=O)C3C4CCC(C4)C3C2=O)c1C (stereo unspecified),AC50,Cytochrome P450 2C9,2 µM (inconclusive)
CN1C(=O)C(C2c3ccccc3C(=O)N2Cc2ccc([N+](=O)[O-])cc2)C(=O)N(C)C1=O (stereo unspecified),AC50,Cytochrome P450 2C19; read-out: AC50,14.1 µM (inconclusive)
CN(C)CCCN1c2ccccc2Sc2cnccc21,AC50,Cytochrome P450 1A2,0.501 µM (inconclusive)
CCOC(=O)c1[nH]c(C)c(C)c1C,AC50,Cytochrome P450 2C19; read-out: AC50,17.8 µM (inconclusive)
same,AC50,Cytochrome P450 2C9,1.12 µM (inconclusive)
O=C(CCN1CCc2ccccc2C1)Nc1ccc(F)cc1,AC50,Cytochrome P450 1A2,0.398 µM (inconclusive)
same,AC50,Cytochrome P450 3A4,15.8 µM (inconclusive)
CCn1c(-c2ccccc2)cnc1S,EC50,[4],> 150 µM (not active)
same,EC50,Streptococcus,> 150 µM (not active)
CCn1c(C)nc2cc(C(=O)NNS(=O)(=O)c3ccccc3F)ccc21,AC50,Cytochrome P450 2C9,20 µM (inconclusive)
COC(=O)CSc1ccc(C#N)c(SCC(=O)OC)c1,AC50,Cytochrome P450 2C9,20 µM (inconclusive)
O=C(NCC1CCCC(CNC(=O)Nc2ccc(Cl)cn2)C1)Nc1ccc(Cl)cn1 (stereo unspecified),EC50,[1],1.18 µM (active)
same,EC50,[2],> 60 µM (not active)
COc1ccc(NS(=O)(=O)c2cccc(C(=O)NC3CCN(Cc4ccccc4)CC3)c2)cc1,EC50,[1],0.318 µM (active)
same,EC50,[2],> 30 µM (not active)
C=CCNc1nc(Cl)nc(Nc2ccc(OC)cc2)n1,AC50,Cytochrome P450 2C19; read-out: AC50,0.224 µM (inconclusive)
Cc1c(-c2cccc(Cl)c2)nc2ccccc2c1C(=O)OC/C(O)=C(\C#N)c1nc2ccccc2[nH]1,EC50,[4],2.23 µM (active)
same,EC50,Streptococcus,2.6 µM (active)
same,AC50,[3],1.75 µM (active)
CC1(C)CCCN(C(=O)N2c3ccccc3Sc3ccccc32)C1,AC50,Cytochrome P450 2C9,15.8 µM (inconclusive)
N[C@@H](Cn1oc(=O)[nH]c1=O)C(=O)O [QUISQUALATE],AC50,Cytochrome P450 1A2,39.8 µM (inconclusive)
same,AC50,Cytochrome P450 3A4,1 µM (inconclusive)
Cc1nn(C(=O)c2ccco2)c(C)c1Sc1ccccc1,AC50,Cytochrome P450 3A4,39.8 µM (inconclusive)
same,AC50,Cytochrome P450 2C9,2.24 µM (inconclusive)
COc1ccc(-c2nc3cnc(OC)nc3n(C3CC3)c2=O)cc1,AC50,Cytochrome P450 3A4,0.0501 µM (inconclusive)
Cc1cc(C)c(S(=O)(=O)NCC2CCC(C(=O)NCc3ccc4c(c3)OCO4)CC2)c(C)c1 (stereo unspecified),AC50,Cytochrome P450 1A2,17.8 µM (inconclusive)
Cc1ccc(CNC(=O)[C@H]2C[C@@H]2[C@H](NP(=O)(c2ccccc2)c2ccccc2)c2ccccc2)c(F)c1F,AC50,Cytochrome P450 2C19; read-out: AC50,0.0398 µM (inconclusive)
COC(=O)N1CC(=O)N(OC)C1c1ccc(Cl)cc1Cl (stereo unspecified),AC50,Cytochrome P450 2C9,0.316 µM (inconclusive)
CCn1c2ccccc2c2cc(/N=C3/SC(CC(=O)Nc4ccccc4OC)C(=O)N3C)ccc21 (stereo unspecified),AC50,Cytochrome P450 3A4,2.82 µM (inconclusive)
CCc1c(C2(O)CCCCC2)[nH]c2c(C(=O)OC)cc(Cl)cc12,EC50,[4],2.62 µM (active)
same,EC50,Streptococcus,5.96 µM (active)
same,AC50,[3],1.89 µM (active)
O=C(NC1CCN(Cc2ccccc2)CC1)c1ccc(Cn2c(=S)[nH]c3ccc(N4CCOCC4)cc3c2=O)cc1,EC50,[1],1.3 µM (active)
same,EC50,[2],10.4 µM (active)
COC(=O)c1c(-c2cc(OC)c(OC)c(OC)c2)c2ccc(OCc3ccccn3)cc2c(=O)n1-c1ccc(N)cc1,AC50,Cytochrome P450 2C19; read-out: AC50,10 µM (inconclusive)
CCOC(=O)c1c(NC(=O)Nc2ccccc2)sc(C)c1C,AC50,Cytochrome P450 3A4,25.1 µM (inconclusive)
CCCCCCCCCCCCN1[C@@H](CC(C)=O)c2cc(F)ccc2S1(=O)=O,AC50,[3],5.3 µM (active)
Cc1cc(C)cc(Oc2nn[nH]n2)c1,AC50,Cytochrome P450 2C9,7.08 µM (inconclusive)
O=c1c(-c2cc(F)cc(F)c2)nc2cncnc2n1-c1ccccc1,AC50,Cytochrome P450 2C19; read-out: AC50,6.31 µM (inconclusive)
same,AC50,Cytochrome P450 2C9,10 µM (inconclusive)
Cc1cc(NC(=O)CCC(=O)N(CC2CCCO2)C(C(=O)NC2CCCC2)c2cccnc2)no1 (stereo unspecified),AC50,Cytochrome P450 3A4,1.41 µM (inconclusive)
same,AC50,Cytochrome P450 2C9,17.8 µM (inconclusive)
N#Cc1cccc(-c2ccc3ncnc(NC4CCNCC4)c3c2)c1,AC50,Cytochrome P450 2C19; read-out: AC50,25.1 µM (inconclusive)
COc1ccccc1CN1CCCC2(CCN(C(=O)c3cccn3C)CC2)C1,AC50,Cytochrome P450 3A4,20 µM (inconclusive)
COc1ccc(-n2c(=O)c(CCc3ccccc3)nc3cnc(N(C)C)nc32)cc1,AC50,Cytochrome P450 1A2,3.16 µM (inconclusive)
same,AC50,Cytochrome P450 3A4,3.16 µM (inconclusive)
CO[C@@H]1COC(=O)C/C=C\[C@@H](C)[C@H](OC)COC(=O)[C@H](COCc2ccccc2)NC(=O)C/C=C\[C@H]1C,AC50,Cytochrome P450 2C19; read-out: AC50,2 µM (inconclusive)
same,AC50,Cytochrome P450 3A4,5.01 µM (inconclusive)
CCN1CCN(c2ccc(S(=O)(=O)N3CCCCC3)cc2NC(=O)c2cc3ccccc3o2)CC1,EC50,[1],0.31 µM (active)
same,EC50,[2],> 30 µM (not active)
N#CCCn1c(=O)cnc2cnc(OCc3ccccc3)nc21,AC50,Cytochrome P450 2C19,inconclusive
COc1cccc(Nc2nc(N)nc(CCl)n2)c1,EC50,[1],1.7 µM (active)
same,EC50,[2],4.11 µM (active)
CN(C)CCCN(C(=O)/C=C/c1cccs1)c1nc2c(F)cccc2s1,EC50,[1],1.86 µM (active)
same,EC50,[2],> 60 µM (not active)
CN(C)CCCN(C(=O)COc1ccc(Cl)cc1)c1nc2c(F)cccc2s1,EC50,[1],0.128 µM (active)
same,EC50,[2],> 60 µM (inconclusive)
COc1ccc(C)cc1NC(=O)c1ccc([N+](=O)[O-])cc1[N+](=O)[O-],EC50,[1],1.18 µM (active)
same,EC50,[2],> 60 µM (not active)
COc1cccc(-c2sc3ccc(OC)cc3c2-c2ccc(O)cc2)c1,AC50,[3],2.67 µM (active)
CC(C)(C)NC[C@@H](O)COc1cccc2[nH]c(C#N)cc12,AC50,Cytochrome P450 1A2,31.6 µM (inconclusive)
CCOCCCNCc1ccc(OCCC(C)C)c(OC)c1,EC50,[1],0.17 µM (active)
same,EC50,[2],> 60 µM (not active)
CN1CCN(c2ncncc2-c2ccccc2Cl)CC1,AC50,Cytochrome P450 1A2,2.51 µM (inconclusive)
COc1ccccc1-c1nc(NCc2ccccc2)c2ccccc2n1,AC50,Cytochrome P450 2C19; read-out: AC50,25.1 µM (inconclusive)
O=C(CCN1C(=O)C2C3C=CC(C3)C2C1=O)Nc1c(F)cccc1F (stereo unspecified),AC50,Cytochrome P450 2C19; read-out: AC50,39.8 µM (inconclusive)
CCOc1nc(NC(C)C)nc(NC(C)C)n1,AC50,Cytochrome P450 1A2,5.01 µM (inconclusive)
c1ccc(CNc2ncncc2-c2ccoc2)cc1,AC50,Cytochrome P450 2C9,0.501 µM (inconclusive)
Cc1ccc(C2C(=O)N(C3CCCC3)CC(=O)N2CC2COc3ccccc3O2)cc1 (stereo unspecified),AC50,Cytochrome P450 1A2,39.8 µM (inconclusive)
COc1ccccc1-c1nc(N2CCN(C)CC2)c2ccccc2n1,AC50,Cytochrome P450 3A4,31.6 µM (inconclusive)
COc1cc(OC)cc(-c2sc3ccc(OC)cc3c2C#CCCO)c1,AC50,[3],4 µM (active)
COC(=O)[C@@]1(Cc2ccccc2)[C@H]2c3cc(C(=O)N4CCCC4)n(CCO)c3C[C@H]2CN1C(=O)c1ccccc1,AC50,Cytochrome P450 2C19; read-out: AC50,0.00794 µM (inconclusive)
CCCc1nnc(NC(=O)C(CC)OC(=O)c2cc(C)nc3ccccc23)s1 (stereo unspecified),AC50,Cytochrome P450 2C19; read-out: AC50,15.8 µM (inconclusive)
same,AC50,Cytochrome P450 1A2,15.8 µM (inconclusive)
O=C(c1ccc(C#CC2(O)CCCCC2)cc1)N1CCN(C(c2ccccc2)c2ccccc2)CC1,AC50,[3],0.482 µM (active)
Cc1ccc2c(c1)-c1c(cnn1CC(=O)O)CO2,AC50,Cytochrome P450 1A2,0.794 µM (inconclusive)
same,AC50,Cytochrome P450 2C9,11.2 µM (inconclusive)
COC(=O)c1c(NC(=O)Cn2cc([N+](=O)[O-])cn2)sc2c1CCC2,AC50,Cytochrome P450 2C19; read-out: AC50,3.16 µM (inconclusive)
same,AC50,Cytochrome P450 2C9,3.55 µM (inconclusive)
COc1ccc(C(CCN)Cc2ccccc2)cc1 (stereo unspecified),EC50,[2],> 30 µM (not active)
N#CCCn1c(=O)cnc2cnc(N3CCOCC3)nc21,AC50,Cytochrome P450 2C19,inconclusive
Cc1cc(C)n(C(=O)c2cc3c(s2)CCCC3)n1,AC50,Cytochrome P450 2C19; read-out: AC50,2.24 µM (inconclusive)
same,AC50,Cytochrome P450 3A4,39.8 µM (inconclusive)
CC(=O)Nc1ccc(OCC(O)Cn2c3ccccc3c3ccccc32)c(C)c1 (stereo unspecified),EC50,[1],2.11 µM (active)
same,EC50,[2],9.57 µM (active)
CCCc1[nH]c2ccc(C#N)cc2c1CCC,AC50,[3],4.21 µM (active)
COc1cccc(Cn2c(=O)c(-c3ccccc3)nc3cnc(N4CCN(C)CC4)nc32)c1,AC50,Cytochrome P450 3A4,31.6 µM (inconclusive)
CN(C)CCCNC(=O)CCc1nc(O)c2ccccc2n1,AC50,Cytochrome P450 2C19; read-out: AC50,7.08 µM (inconclusive)
same,AC50,Cytochrome P450 2C9,1 µM (inconclusive)
COc1ccccc1N1CCN(C[C@@H](O)COc2cccc3ccccc23)CC1,AC50,Cytochrome P450 1A2,12.6 µM (inconclusive) and 31.6 µM (inconclusive) and 20 µM (inconclusive)
CN1CCN(c2nc(-c3ccoc3)nc3ccccc23)CC1,AC50,Cytochrome P450 3A4,20 µM (inconclusive)
Fc1ccc(CSc2nnc(-c3cc4c(s3)-c3ccccc3CC4)o2)cc1,AC50,Cytochrome P450 2C19,inconclusive
same,AC50,Cytochrome P450 3A4,15.8 µM (inconclusive)
Cc1nonc1NCn1nnc2ccccc21,AC50,Cytochrome P450 2C19; read-out: AC50,14.1 µM (inconclusive)
same,AC50,Cytochrome P450 1A2,8.91 µM (inconclusive)
same,AC50,Cytochrome P450 2C9,5.01 µM (inconclusive)
